Test results as given in ChEMBL document CHEMBL1135895, “Stereochemistry at phosphorus of the reaction catalyzed by myo-inositol monophosphatase” (J Med Chem, 2002).

Tests used:
[1] = IMPase-catalyzed hydrolysis at pH 9.00 at 25 degrees Centigrade.; assay type: ADME; conditions: for Km / k cat: buffer
[2] = Oxidation catalyzed by inositol dehydrogenase at pH 9.13.; assay type: ADME

| Structure (SMILES) | Km [1] | k cat [1] | Km [2] | k cat [2] | k cat/Km [2] | Ki [1] |
| --- | --- | --- | --- | --- | --- | --- |
| O=P(O)(O)OC1C(O)C(O)C(O)C(O)C1O (stereo not drawn) | 110 µM | 0.48 s⁻¹ |  |  |  |  |
| O[C@H]1[C@H](O)[C@@H](O)[C@H](O)[C@@H](O)[C@H]1O [INOSITOL] |  |  | 580 µM | 13.3 s⁻¹ | 23100 M⁻¹ s⁻¹ |  |
| OC1C(O)C(O)C(OP(O)(O)=S)C(O)C1O (stereo not drawn) | 2070 µM | 0.185 s⁻¹ |  |  |  | 1140 µM |
